Our source for the IC50 values is patent US11254688B2 (Boehringer Ingelheim International GmbH, priority 2018, dated 2022).

As a reminder, the IC50 is the concentration needed to halve the response being measured. The low end stands for greater potency in that assay, the high end for weaker potency in that assay.

Counter-ions that a name gives are not always drawn.

This test concerns the target T1, hGOAT (Homo sapiens, UniProt Q96T53).
T1 construct: expressed in transfected cells; host or cells: HEK293 (Hek293 hGOAT/PPGhrl Clone #1B8)
T1 sequence (Q96T53 1-435): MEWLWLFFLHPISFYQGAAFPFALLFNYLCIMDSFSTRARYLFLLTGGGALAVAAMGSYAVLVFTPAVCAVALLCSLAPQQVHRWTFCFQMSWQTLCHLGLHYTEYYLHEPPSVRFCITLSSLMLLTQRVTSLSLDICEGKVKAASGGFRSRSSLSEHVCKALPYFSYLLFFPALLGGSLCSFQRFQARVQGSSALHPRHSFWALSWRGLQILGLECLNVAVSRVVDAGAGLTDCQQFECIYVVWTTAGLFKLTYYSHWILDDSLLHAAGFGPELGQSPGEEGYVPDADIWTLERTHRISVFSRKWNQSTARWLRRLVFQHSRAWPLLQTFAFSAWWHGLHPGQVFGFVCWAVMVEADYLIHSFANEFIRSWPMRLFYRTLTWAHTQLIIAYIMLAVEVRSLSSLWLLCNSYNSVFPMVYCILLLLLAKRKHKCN
The test can be described thus: Determination of hGOAT activity in HEK293 cells after incubation with test compound (acyl-ghrelin ELISA). The test is classed as cell-based. The following applies: HEK293 cells stably transfected with preproghrelin and human GOAT; octanoate-BSA 100 μM; 5 hours incubation; acyl-ghrelin in medium by ELISA; 8 compound concentrations. (In general: In an ELISA, binding on a coated surface is turned into a signal by an enzyme label.)
The molecule `Nc1c(Cc2ccc(F)cc2)c(Cl)nc2nonc12` [Compound 23.5, 5-Chloro-6-[(4-fluorophenyl)methyl]-[1,2,5]oxadiazolo[3,4-b]pyridin-7-amine] yielded an IC50 of 0.737 nM.

On to `COc1cc(Cc2c(Cl)nc3nonc3c2N)ccc1Br` [Compound 23.6, 6-[(4-Bromo-3-methoxyphenyl)methyl]-5-chloro-[1,2,5]oxadiazolo[3,4-b]pyridin-7-amine], for which the IC50 stood at 0.078 nM.

Consider `COc1cc(Cc2c(Cl)nc3nonc3c2N)ccc1C#N` [Compound 23.7, 4-({7-Amino-5-chloro-[1,2,5]oxadiazolo[3,4-b]pyridin-6-yl}methyl)-2-methoxybenzonitrile], for which the IC50 stood at 0.178 nM.

`Nc1c(Cc2ccc(C(F)(F)F)cc2)c(Br)nc2nonc12` [Compound 24.1, 5-Bromo-6-{[4-(trifluoromethyl)phenyl]methyl}-[1,2,5]oxadiazolo[3,4-b]pyridin-7-amine] returned an IC50 of 0.475 nM.

For `Nc1c(Cc2ccc(C(F)(F)F)cc2)c(CO)nc2nonc12` [Compound 24.2, (7-Amino-6-{[4-(trifluoromethyl)phenyl]methyl}-[1,2,5]oxadiazolo[3,4-b]pyridin-5-yl)methanol], half-maximal inhibition (IC50) was put at 5.73 nM.

Molecule `CN(C)c1nc2nonc2c(N)c1Cc1ccc(C(F)(F)F)cc1` [Compound 24.3, N5,N5-Dimethyl-6-{[4-(trifluoromethyl)phenyl]methyl}-[1,2,5]oxadiazolo[3,4-b]pyridine-5,7-diamine Trifluoroacetic Acid Salt] gave an IC50 of 6.12 nM.

`N#Cc1nc2nonc2c(N)c1Cc1ccc(C(F)(F)F)cc1` [Compound 24.4, 7-Amino-6-{[4-(trifluoromethyl)phenyl]methyl}-[1,2,5]oxadiazolo[3,4-b]pyridine-5-carbonitrile] gave an IC50 of 2.42 nM.

Molecule `Nc1c(Cc2ccc(C(F)(F)F)cc2)c(C(F)F)nc2nonc12` [Compound 24.5, 5-(Difluoromethyl)-6-{[4-(trifluoromethyl)phenyl]methyl}-[1,2,5]oxadiazolo[3,4-b]pyridin-7-amine] displayed an IC50 of 0.289 nM.

Turning to `Cc1nc2nonc2c(N)c1Cc1ccc(Cl)nc1C(F)F` [Compound 25.1, 6-{[6-Chloro-2-(difluoromethyl)pyridin-3-yl]methyl}-5-methyl-[1,2,5]oxadiazolo[3,4-b]pyridin-7-amine], the IC50 amounted to 3.5 nM.

Molecule `Cc1nc2nonc2c(N)c1Cc1cnc(Cl)cc1C(F)F` [Compound 25.2, 6-{[6-Chloro-4-(difluoromethyl)pyridin-3-yl]methyl}-5-methyl-[1,2,5]oxadiazolo[3,4-b]pyridin-7-amine] showed an IC50 of 4.84 nM.

The molecule `Cc1nc2nonc2c(N)c1Cc1ccc(Cl)nc1C(F)(F)F` [Compound 25.3, 6-{[6-Chloro-2-(trifluoromethyl)pyridin-3-yl]methyl}-5-methyl-[1,2,5]oxadiazolo[3,4-b]pyridin-7-amine] registered an IC50 of 7.36 nM.

The molecule `Cc1nc2nonc2c(N)c1Cc1cnc(Cl)c(C(F)(F)F)c1` [Compound 25.4, 6-{[6-chloro-5-(trifluoromethyl)pyridin-3-yl]methyl}-5-methyl-[1,2,5]oxadiazolo[3,4-b]pyridin-7-amine] showed an IC50 of 1.35 nM.
